# Experimental data taken from patent US20240269170A1, “Treatment of Inflammatory Conditions or Diseases” (Queen Mary University of London, priority 2021, published 2024).
# Tested on: G6PI peptide induced arthritis in DBA/1 mice
# Assay: G6PI peptide induced arthritis, MCTR3 treatment
# Format: in vivo, mouse
# Protocol: (A-D) K/B×N serum (100 μL via intraperitoneal injection, i.p.) was administered to C57BL/6 mice on days 0, 2 and 8 to initiate and prolong inflammatory arthritis. Mice were treated 1 μg/mouse MCTR3 or vehicle (PBS+0.1% EtOH) on day 10, 12 and 14 via intravenous (i.v.) injection. Disease course was assessed by evaluating A) clinical scores and B) paw oedema daily. Results are mean±SEM, n=9 mice per group. Statistical differences were evaluated using a Two-Way ANOVA. Arrows denote days when MCTR3 was administered. (C,D) paws were harvested on day 25, and cells liberated from the joints and the expression of phenotypic markers was evaluated on joint macrophages using flow cytometry and PLS-DA. (C) scores plot with highlighted regions denoting the clusters representing cells from each group and (D) VIP scores for each of the markers evaluated. Each dot in the score plot represents a separate mouse. (E-H) Arthritis was induced in DBA/1 mice by administration of 10 μg G6PI in CFA on Day 0. On day 24, 26 and 28 (denoted in blue arrows), mice were administered 1 μg/mouse MCTR3 or vehicle (PBS+0.1% EtOH) i.v. and (E) clinical scores and (F) paw oedema were measured. Results are mean±SEM, n=mice 7 per group from 2 separate experiments. Statistical differences were evaluated using a Two-Way ANOVA. (G-H) paws were harvested on day 36, and cells liberated from the joints and the expression of phenotypic markers was evaluated on joint macrophages using flow cytometry and PLS-DA. (G) scores plot with highlighted regions denoting the clusters representing cells from each group and (H) VIP scores for each of the markers evaluated. Each dot in the score plot represents a separate mouse.
# FIG. 10: MCTR3 promotes bone and cartilage repair in arthritic mice. G6PI peptide (10 μg/mouse) in CFA was administered to DBA/1 mice ([…]) and mice were treated with either vehicle (PBS+0.1% EtOH) or 1 μg/mouse MCTR3 i.v. on day 24, 26 and 28. On day 36, hind paws were harvested for histological analysis. A) Representative images from knee joints from a vehicle and MCTR3 treated mouse stained with Safranin-O and B) quantitative analysis of Safranin O staining. Results are mean±SEM n=5 mice per group. C-D) microCT analysis was performed in vivo on day 24 and 35, to evaluate bone erosion in the arthritic knees. […] Results are mean±SEM and expressed as percent change from values obtained on day 24 for each mouse. n=4 mice per group. Statistical differences were evaluated using a Mann-Whitney U test.
# We next assessed whether the protective activities of MCTR3 were retained in a model of adaptive immune system driven arthritis, using the glucose-6-phosphate isomerase peptide driven model of inflammatory arthritis (Schubert et al., 2004, J Immunol 172, 4503-4509). Here, administration of MCTR3 during the course of arthritic inflammation also led to a reduction in joint inflammation as measured by a reduction in both clinical scores and joint oedema (FIG. 1E,F). […] This shift in phenotype was linked with an upregulation of three phenotypic markers, including Arg-1 and CD11b, in cells obtained from joints of MCTR3 treated mice (FIG. 1H).
# Since one of the main debilitating features of arthritis is bone erosion, we next determined whether the joint protective actions of MCTR3 also extended to the bone. For this purpose, we used microCT analysis to investigate bone volume in arthritic joints, comparing bone volumes on day 24, prior to MCTR3 treatment, to those at day 35. […] We next queried whether these bone protective activities of
# G6PI peptide induced arthritis: Antigen DBA/1 mice were immunised with a G6PI emulsion (120 μL/mouse), prepared by sonication of 10 μg G6PI peptide (Sequence: IWYINCFGCETHAML; Cambridge Peptides Ltd.) in 50 μL complete Freund's adjuvant (CFA) and 50 μL DPBS^−/− per mouse (Schubert et al., 2004, J Immunol 172, 4503-4509), via intradermal injection at the base of the tail to initiate inflammatory arthritis. […]
# [1] = 1 μg/mouse i.v. on day 24, 26 and 28
# [2] = 1 μg/mouse i.v., day 36, flow cytometry
smiles,measurement,setting,value
"CC/C=C\C/C=C\C[C@H](O)[C@@H](/C=C/C=C/C=C\C/C=C\CCC(=O)O)SC[C@H](N)C(=O)O [MCTR3, 13R-cysteinyl, 14S-hydroxy-4Z, 7Z, 9E, 11E, 13R, 14S, 16Z, 19Z-docosahexaenoic acid]",clinical scores,[1],reduction
same,joint oedema,[1],reduction
same,safranin O-staining in joints (glycosaminoglycan content),"1 μg/mouse i.v. on day 24, 26 and 28, day 36",significantly higher
same,bone volume in arthritic knees (microCT),"1 μg/mouse i.v., day 35 compared with day 24",increased
same,Arg-1 in joint macrophages,[2],upregulation
same,CD11b in joint macrophages,[2],upregulation
